The source of these data is article PMC6270924, “A New Urease Inhibitor from Viola betonicifolia” (Molecules, 2014).

This assay has as its target jack bean urease (Canavalia ensiformis, UniProt P07374). The assay can be described thus: urease inhibition by indophenol (Weatherburn) ammonia assay; Lineweaver-Burk, secondary replot and Dixon plot kinetics (IC50 […]). The format is biochemical.

Chain of jack bean urease (P07374 whole entry, looked up): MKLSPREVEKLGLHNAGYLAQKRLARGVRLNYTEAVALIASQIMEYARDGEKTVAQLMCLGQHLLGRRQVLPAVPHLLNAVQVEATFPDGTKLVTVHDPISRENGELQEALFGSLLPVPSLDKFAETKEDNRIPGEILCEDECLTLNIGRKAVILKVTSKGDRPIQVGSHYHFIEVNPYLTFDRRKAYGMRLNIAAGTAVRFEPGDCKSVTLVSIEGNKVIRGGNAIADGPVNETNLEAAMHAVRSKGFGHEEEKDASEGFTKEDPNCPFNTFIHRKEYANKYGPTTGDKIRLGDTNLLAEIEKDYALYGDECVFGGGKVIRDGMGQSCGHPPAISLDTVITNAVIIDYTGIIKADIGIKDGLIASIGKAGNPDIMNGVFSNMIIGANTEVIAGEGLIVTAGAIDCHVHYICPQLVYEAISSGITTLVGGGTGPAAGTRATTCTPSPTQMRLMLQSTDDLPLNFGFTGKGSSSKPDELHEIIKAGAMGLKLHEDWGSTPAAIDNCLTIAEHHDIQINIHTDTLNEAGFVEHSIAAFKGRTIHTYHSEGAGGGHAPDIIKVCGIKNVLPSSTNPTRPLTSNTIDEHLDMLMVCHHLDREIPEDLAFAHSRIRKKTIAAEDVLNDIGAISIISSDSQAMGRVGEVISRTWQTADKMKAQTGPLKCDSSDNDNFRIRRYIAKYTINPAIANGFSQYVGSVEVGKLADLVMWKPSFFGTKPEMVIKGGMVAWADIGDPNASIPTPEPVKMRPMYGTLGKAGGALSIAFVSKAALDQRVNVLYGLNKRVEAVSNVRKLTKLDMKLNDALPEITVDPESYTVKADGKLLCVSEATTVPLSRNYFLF

As usually defined, the Ki is the equilibrium dissociation constant of an inhibitor or competing ligand from its target. Molecule `C=C[C@@H](C1=CC(=O)C=C(OC)C1=O)c1ccccc1` [compound 1, 3-methoxydalbergione] yielded a Ki of 138.16 ± 0.06 µM.
